Reference: US10730840B2, “Substituted tetrahydroisoquinoline ethylbenzamide anti-cancer agents” (Florida A&M University, priority 2017, dated 2020)
In brackets after ≈: the same amount, converted by molar mass. Entries after “also recorded” stand apart in the source; their conditions may differ. Structures can show the parent of a compound that is named as a salt. Where two headings read alike, the source gives them in different places.

Assays:
[1] = tested on: Ishikawa (endometrial) cancer cell line; assay: CellTiter-Glo antiproliferative activity, Ishikawa cell line; assay type: cell-based, human; conditions: 72 h exposure; for IC50: Homo sapiens, Ishikawa
Source text: Numerous substituted THIQs were systematically synthesized employing molecular design and structure activity relationship studies (Suresh et al., (2014) Lett. Drug Design & Discov. 11: 428-436; Gangapuram et al., (2014) J. Cancer Sci. Ther. 6: 161-169). The compounds' cytotoxic effects on MCF-7 (estrogen receptor positive breast cancer) cell lines, MDA-MB-231 (estrogen receptor negative breast cancer) cell lines and Ishikawa cell lines using CellTiter-Glo (CTG) luminescent cell viability essay were studied. The tests were done on different concentrations of the compounds ranging from 0.01 to 100,000 nM on 5000 MCF-7 cells/well, on 5000 MDA-MB-231 cells/well and on 5000 Ishikawa cells/well. Drug exposed cells were incubated at 37° C. for three days followed by CTG assay. Then IC50 values were generated from Graph Pad Prism 4. […]
(§1) The antiproliferative activities of substituted tetrahydroisoquinolines 2a-2m, 3a-3l and 4a-4f were evaluated according to the procedure reported previously (Crouch et al., (1993) J. Immunol. Methods 160: 81-88).
(§2) Human MCF-7 and MDA-MB-231 breast cancer cell lines were purchased from the NCI. The human Ishikawa endometrial cancer cell line was purchased from Sigma Aldrich. All three cell lines were cultured in phenol red-free RPMI-1640 (Hyclone) (500 mL) supplemented with L-glutamine-dipeptide (Hyclone) (5 mL), and 10% fetal bovine serum (Atlanta Biologicals) (50 mL).
(§3) The cell lines were cultured and treated with compounds under study including the standard TAM ranging from 0.01 nM to 100,000 nM concentration in the presence of 10 nM estradiol using the previous reported method (Suresh et al., (2014) Lett. Drug Des. Discov. 11: 428-436).
(§4) The amount of ATP is determined using a system based on luciferase and D-luciferin resulting in light generation.

[2] = tested on: MCF-7 (ER positive breast cancer cell line); assay: CellTiter-Glo antiproliferative activity, MCF-7 cell line; assay type: cell-based, human; conditions: for IC50: Homo sapiens, MCF7; for antiproliferative activity against MCF-7 cell line in words: based on IC50 value
Source text: (§5) Numerous substituted THIQs were systematically synthesized employing molecular design and structure activity relationship studies (Suresh et al., (2014) Lett. Drug Design & Discov. 11: 428-436; Gangapuram et al., (2014) J. Cancer Sci. Ther. 6: 161-169). The compounds' cytotoxic effects on MCF-7 (estrogen receptor positive breast cancer) cell lines, MDA-MB-231 (estrogen receptor negative breast cancer) cell lines and Ishikawa cell lines using CellTiter-Glo (CTG) luminescent cell viability essay were studied. The tests were done on different concentrations of the compounds ranging from 0.01 to 100,000 nM on 5000 MCF-7 cells/well, on 5000 MDA-MB-231 cells/well and on 5000 Ishikawa cells/well. Drug exposed cells were incubated at 37° C. for three days followed by CTG assay. Then IC50 values were generated from Graph Pad Prism 4.
(§6) Chemistry: Several substituted tetrahydroisoquinolines 2d-2m, 3h, 3k, 3l, and 4a-4f were prepared according to three different procedures as shown in Schemes 1, 2 and 3 (FIGS. 2-4). […] The aminating agent 10 was prepared using a reported procedure (Tamura et al., (1972) J. Org. Chem. 40: 4133-4135). The amino salts of ring substituted 2-aminoisoquinolinium mesitylenesulfonates of general structure 11 used in the present study were prepared by the reaction of substituted isoquinolines and the aminating agent 10 as previously reported (Gangapuram et al., (2014) J. Cancer Sci. Ther. 6: 161-169). […] The aminating agent 13 was prepared using a reported procedure (Legault & Charette (2003) J. Org. Chem. 68: 7119-7122). The amino salts of ring substituted 2-aminoisoquinolinium compounds of general structure 14 were obtained with the reaction of the substituted isoquinolines and the aminating agent 13 in CH3CN heated at 50° C. for 24 hours. Without further purification, the salts were used to prepare the N-ylides by reaction with substituted acyl/sulfonyl chlorides. […] N-Oxidation of commercially available ring substituted THIQs followed by the reduction of the NO group using standard zinc/acetic acid led to the synthesis of N-amino THIQs.
as §1, §2, §3, §4

[3] = tested on: MDA-MB-231 (ER negative breast carcinoma cell line); assay: CellTiter-Glo antiproliferative activity, MDA-MB-231 cell line; assay type: cell-based, human; conditions: 72 h exposure; for IC50: Homo sapiens, MDA-MB-231
Source text: as §5, §6, §1, §2, §3

[4] = tested on: MCF-7, MDA-MB-231, and Ishikawa cell lines; assay: Antiproliferative activity, summary statements over the three cell lines; assay type: cell-based, human; conditions: MCF-7, MDA-MB-231 and Ishikawa cell lines together
Source text: as §5, §6, §1, §2, §3

[5] = in the presence of 10 nM estradiol, read-out: IC50 against Ishikawa cell line
[6] = Table 1, in the presence of 10 nM estradiol, read-out: IC50 Ishikawa
[7] = Table 1, 72 h exposure, in the presence of 10 nM estradiol, read-out: IC50 MCF-7
[8] = Table 1, in the presence of 10 nM estradiol
[9] = in the presence of 10 nM estradiol
[10] = Table 2, estradiol added, read-out: IC50 Ishikawa
[11] = Table 2, 72 h exposure, estradiol added, read-out: IC50 MCF-7
[12] = Table 1, 72 h exposure, in the presence of 10 nM estradiol

## CCc1ccc(C(=O)NN2CCc3cc(Cl)ccc3C2)cc1 [Compound 4e, N-(6-Chloro-3,4-dihydroisoquinolin-2(1H)-yl)-4-ethylbenzamide]
[1]; [5]
  IC50: < 7.87 µg/mL
[1]; [6]
  IC50: 0.98 µg/mL
[2]; [7]
  IC50: 2.49 µg/mL
[3]; [8]
  IC50: 3.74 µg/mL
other
  melting point: 205 to 206 °C

## COc1ccc(C(=O)NN2CCc3ccc(O)cc3C2)cc1 [Compound 2d, N-(7-hydroxy-3,4-dihydroisoquinolin-2(1H)-yl)-4-methoxybenzamide]
[1]; [6]
  IC50: 0.99 µg/mL
[2]; [7]
  IC50: > 29.8 µg/mL
[3]; [8]
  IC50: 25.2 µg/mL
other
  melting point: 192.5 to 194.3 °C

## CCc1ccc(C(=O)NN2CCc3cccc(O)c3C2)cc1 [Compound 2i, 4-Ethyl-N-(8-hydroxy-3,4-dihydroisoquinolin-2(1H)-yl) benzamide]
[1]; [9]
  IC50 against Ishikawa cell line: 0.09 µg/mL
[2]; 72 h exposure, in the presence of 10 nM estradiol
  IC50 against MCF-7 cell line: 0.61 µg/mL
[2]; MCF-7 versus MDA-MB-231 IC50
  selectivity towards ER(+) MCF-7 compared to ER(−) MDA-MB-231 cell lines: significant selectivity; also recorded: reasonable selectivity
[2]
  antiproliferative activity against MCF-7 cell line in words: very active
[3]; [9]
  IC50 against MDA-MB-231 cell line: 1.36 µg/mL
[4]
  antiproliferative activity in words: active

## O=C(c1ccc(OCCN2CCCCC2)cc1)c1c(-c2ccc(O)cc2)sc2cc(O)ccc12 [Raloxifene-Hydrochloride, reference compound]
[1]; [6]
  IC50: 10.5 µg/mL
[2]; [7]
  IC50: 0.98 µg/mL
[3]; [8]
  IC50: 11.2 µg/mL

## CCc1ccc(C(=O)NN2CCc3ccc(OS(N)(=O)=O)cc3C2)cc1 [Redda-GM-4-171, 2-(4-Ethylbenzamido)-1,2,3,4-tetrahydroisoquinolin-7-yl-sulfamate]
[1]; [10]
  IC50: 0.12 µg/mL (≈ 0.32 µM)
[2]; [11]
  IC50: 2.14 µg/mL (≈ 5.7 µM)
[3]; Table 2, estradiol added
  IC50: 2.53 µg/mL (≈ 6.74 µM)

## COc1cccc2c1CCN(NC(=O)c1ccc(C(C)(C)C)cc1)C2 [Compound 3a, 4-(tert-butyl)-N-(5-Methoxy-3,4-dihydroisoquinolin-2(1H)-yl) benzamide]
[1]; [8]
  IC50 Ishikawa: >33.84 µg/mL
[2]; [12]
  IC50 MCF-7: >33.84 µg/mL
[3]; [8]
  IC50 MDA-MB-231: >33.84 µg/mL

## CC(C)(C)c1ccc(C(=O)NN2CCc3c(cccc3OCc3ccccc3)C2)cc1 [Compound 3e, N-(5-(Benzyloxy)-3,4-dihydroisoquinolin-2(1H)-yl)-4-(tertbutyl) benzamide]
[1]; [8]
  IC50 Ishikawa: >41.45 µg/mL
[2]; [12]
  IC50 MCF-7: >41.45 µg/mL
[3]; [8]
  IC50 MDA-MB-231: >41.45 µg/mL

## CCc1ccc(C(=O)NN2CCc3cc(C(=O)OC)ccc3C2)cc1 [Compound 3h, methyl-2-(4-ethylbenzamido)-1,2,3,4-tetrahydroisoquinoline-6-carboxylate]
[1]; [6]
  IC50: 8.64 µg/mL
[2]; [7]
  IC50: 15.2 µg/mL
[3]; [8]
  IC50: 16.1 µg/mL

## CCc1ccc(C(=O)NN2CCc3cc(O)ccc3C2)cc1 [Compound 2h, 4-Ethyl-N-(6-hydroxy-3,4-dihydroisoquinolin-2(1H)-yl) benzamide]
[1]; [8]
  IC50 Ishikawa: 22.38 µg/mL
[2]; [12]
  IC50 MCF-7: >29.64 µg/mL
[3]; [8]
  IC50 MDA-MB-231: >29.64 µg/mL

## CC(C)(C)c1ccc(C(=O)NN2CCc3c(O)cccc3C2)cc1 [Compound 3b, 4-(tert-butyl)-N-(5-Hydroxy-3,4-dihydroisoquinolin-2(1H)-yl) benzamide]
[1]; [8]
  IC50 Ishikawa: 10.96 µg/mL
[2]; [12]
  IC50 MCF-7: 7.92 µg/mL
[3]; [8]
  IC50 MDA-MB-231: 10.25 µg/mL

## CCc1ccc(C(=O)NN2CCc3cccc(N)c3C2)cc1 [Compound 2k, N-(8-amino-3,4-dihydroisoquinolin-2(1H)-yl)-4-ethylbenzamide]
[1]; [6]
  IC50: 0.6 µg/mL
[2]; [7]
  IC50: 2.23 µg/mL
[3]; [8]
  IC50: 16.8 µg/mL
other
  melting point: 223.5 to 224.8 °C

## COc1ccccc1C(=O)NN1CCc2ccc(O)cc2C1 [Compound 2f, N-(7-hydroxy-3,4-dihydroisoquinolin-2(1H)-yl)-2-methoxybenzamide]
[1]; [6]
  IC50: > 29.8 µg/mL
[2]; [7]
  IC50: > 29.8 µg/mL
[3]; [8]
  IC50: > 29.8 µg/mL
other
  melting point: 197.3 to 199.4 °C

## CCc1ccc(C(=O)NN2CCc3ccc(C#N)cc3C2)cc1 [Compound 4d, N-(7-Cyano-3,4-dihydroisoquinolin-2(1H)-yl)-4-ethylbenzamide]
[1]; [5]
  IC50: < 7.87 µg/mL
[1]; [6]
  IC50: 0.9 µg/mL
[2]; 72 h exposure, in the presence of 10 nM estradiol, read-out: IC50 against MCF-7 cell line
  IC50: 1.28 µg/mL
[2]; [7]
  IC50: 1.28 µg/mL
[2]
  antiproliferative activity against MCF-7 cell line in words: moderate activity
[3]; [8]
  IC50: 1.76 µg/mL

## CCc1ccc(C(=O)NN2CCc3cc(OC)c(OC)cc3C2)cc1 [Compound 4b, N-(6,7-Dimethoxy-3,4-dihydroisoquinolin-2(1H)-yl)-4-ethylbenzamide]
[1]; [6]
  IC50: > 34.1 µg/mL
[2]; [7]
  IC50: > 34.1 µg/mL
[3]; [8]
  IC50: > 34.1 µg/mL
other
  melting point: 224 to 225 °C

## COc1cccc(C(=O)NN2CCc3ccc(O)cc3C2)c1 [Compound 2e, N-(7-hydroxy-3,4-dihydroisoquinolin-2(1H)-yl)-3-methoxybenzamide]
[1]; [6]
  IC50: 0.31 µg/mL
[2]; [7]
  IC50: 1.86 µg/mL
[3]; [8]
  IC50: 1.71 µg/mL
other
  melting point: 190.5 to 192.3 °C

## CCc1ccc(C(=O)NN2CCc3c(O)cccc3C2)cc1 [Compound 3f, 4-Ethyl-N-(5-hydroxy-3,4-dihydroisoquinolin-2(1H)-yl) benzamide]
[1]; [8]
  IC50 Ishikawa: 9.93 µg/mL
[2]; [12]
  IC50 MCF-7: 18.61 µg/mL
[3]; [8]
  IC50 MDA-MB-231: 15.61 µg/mL

## CCc1ccccc1C(=O)NN1CCc2ccc(O)cc2C1 [Compound 2g, 2-Ethyl-N-(7-hydroxy-3,4-dihydroisoquinolin-2(1H)-yl) benzamide]
[1]; [8]
  IC50 Ishikawa: >29.64 µg/mL
[2]; [12]
  IC50 MCF-7: >29.64 µg/mL
[3]; [8]
  IC50 MDA-MB-231: >29.64 µg/mL

## CCc1ccccc1C(=O)NN1CCc2ccc(C#N)cc2C1 [Compound 4a, N-(7-Cyano-3,4-dihydroisoquinolin-2(1H)-yl)-2-ethylbenzamide]
[1]; [6]
  IC50: > 30.5 µg/mL
[2]; [7]
  IC50: 26.4 µg/mL
[3]; [8]
  IC50: > 30.5 µg/mL
other
  melting point: 162 to 167 °C

## CCc1ccc(C(=O)NN2CCc3cc(C(=O)O)ccc3C2)cc1 [Compound 3k, 2-(4-Ethylbenzamido)-1,2,3,4-tetrahydroisoquinoline-6-carboxylic acid]
[1]; [6]
  IC50: > 32.4 µg/mL
[2]; [7]
  IC50: > 32.4 µg/mL
[3]; [8]
  IC50: > 32.4 µg/mL
other
  melting point: 251 to 253 °C

## CCc1ccc(C(=O)NN2CCc3ccccc3C2c2ccco2)cc1 (stereo not drawn) [Redda-EVK-I-135, 4-Ethyl-N-(1-(furan-2-yl)-3,4-dihydroisoquinolin-2(1H)-yl)benzamide]
[1]; [10]
  IC50: 1.71 µg/mL (≈ 4.94 µM)
[2]; [11]
  IC50: 2.39 µg/mL (≈ 6.9 µM)
[3]; Table 2, estradiol added
  IC50: 3.88 µg/mL (≈ 11.2 µM)

## Nc1ccc(C(=O)NN2CCc3ccc(Br)cc3C2)cc1 [Compound 2l, 4-Amino-N-(7-bromo-3,4-dihydroisoquinolin-2(1H)-yl) benzamide]
[1]; [8]
  IC50 Ishikawa: 1.09 µg/mL
[2]; [12]
  IC50 MCF-7: 2.80 µg/mL
[3]; [8]
  IC50 MDA-MB-231: 9.86 µg/mL

## CCc1ccc(C(=O)NN2CCc3ccc(Cl)cc3C2)cc1 [Redda-EVK-I-132, N-(7-Chloro-3,4-dihydroisoquinolin-2(1H)-yl)-4-ethylbenzamide]
[1]; [10]
  IC50: 0.318 µg/mL (≈ 1.01 µM)
[2]; [11]
  IC50: 0.678 µg/mL (≈ 2.15 µM)
[3]; Table 2, estradiol added
  IC50: 0.826 µg/mL (≈ 2.62 µM)
